Assays:
Prostacyclin receptor [1] = target: T1, Prostacyclin receptor (Homo sapiens, UniProt P43119); experiment: Compound was tested for prostacyclin (PGI-2) binding by displacement of [3H]iloprost from human platelets using conventional ligand binding assay
Homo sapiens = organism: Homo sapiens; experiment: Compound was tested for the inhibition of 4 uM ADP-induced platelet aggregation by using human platelet rich plasma; assay type: functional
Prostacyclin receptor [2] = target: T1, Prostacyclin receptor; experiment: Compound was tested for prostacyclin (PGI-2) binding by displacement of [3H]iloprost from human platelets.; conditions: concentration not given here

T1 sequence (P43119 whole entry): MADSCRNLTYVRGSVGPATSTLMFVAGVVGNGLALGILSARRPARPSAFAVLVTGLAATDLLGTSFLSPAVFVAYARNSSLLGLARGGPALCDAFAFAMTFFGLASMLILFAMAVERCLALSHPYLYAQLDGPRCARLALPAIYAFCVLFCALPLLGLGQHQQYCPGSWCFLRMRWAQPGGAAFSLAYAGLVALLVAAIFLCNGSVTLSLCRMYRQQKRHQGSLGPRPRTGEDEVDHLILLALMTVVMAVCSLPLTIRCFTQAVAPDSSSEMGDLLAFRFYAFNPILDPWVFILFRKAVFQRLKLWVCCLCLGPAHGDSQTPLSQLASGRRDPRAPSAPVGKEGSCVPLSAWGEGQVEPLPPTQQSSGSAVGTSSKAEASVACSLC

SMILES	IC50 (Prostacyclin receptor [1]) [µM]	IC50 (Homo sapiens) [µM]	inhibition (Prostacyclin receptor [2]) [%]
O=C(O)COc1cccc2c1CCCC2CCCCOC(c1ccccc1)c1ccccc1 (stereo unspecified)	4.2	11	
O=C(O)COc1cccc2c1CCCC2CCCOC(c1ccccc1)c1ccccc1 (stereo unspecified)	0.46	0.45	
O=C(O)COc1cccc2c1CCC(CCCOC(c1ccccc1)c1ccccc1)C2 (stereo unspecified)	> 10	> 20	25
O=C(O)COc1cccc2c1CCC(CCOC(c1ccccc1)c1ccccc1)C2 (stereo unspecified)	8	> 20	

Further molecules by falling IC50 (Homo sapiens), results first:

IC50 (Prostacyclin receptor [1]) [µM]	IC50 (Homo sapiens) [µM]	inhibition (Prostacyclin receptor [2]) [%]	SMILES
2.4	2.4		O=C(O)COc1cccc2c1CCC(CON=C(c1ccccc1)c1ccccc1)C2 (stereo unspecified)
0.21	0.25		O=C(O)COc1cccc2c1CCCC2CCON=C(c1ccccc1)c1ccccc1 (stereo unspecified)
	0.15		O=C(O)COc1cccc2c1CCC(CC(=O)NN(c1ccccc1)c1ccccc1)C2 (stereo unspecified)
0.01	0.057		O=C(O)COc1cccc2c1CCCC2CCC(=O)NN(c1ccccc1)c1ccccc1 (stereo unspecified)
